# pIC50: −log10 of the molar value. Active and inactive are the calls of the source. The rule behind the calls is not given here.
# Target: Prothrombin (Homo sapiens, UniProt P00734)
# Experiment: Inhibition of human thrombin assessed as reduction in release of free nitroaniline using tosyl-glycyl-prolyl-arginine-4-nitranilide acetate as substrate preincubated for 10 mins followed by substrate addition by spectrophotometer
row,pIC50,Structure (SMILES)
1,5.72,CCOC(=O)C1(c2ccc3c(c2)nc2n3CCNC2Cc2ccc(C(=N)N)cc2)CCCC1 (stereo not drawn)
2,6.00,CC(C)(C(=O)N1CCCCC1)c1ccc2c(c1)nc1n2CCNC1Cc1ccc(C(=N)N)cc1 (stereo not drawn)
3,6.83,CC(C)(C(=O)N1CCCC1)c1ccc2c(c1)nc1n2CCNC1Cc1ccc(C(=N)N)cc1 (stereo not drawn)
4,5.99,N=C(N)c1ccc(CC2NCCn3c2nc2cc(C4(C(=O)N5CCCCC5)CCCC4)ccc23)cc1 (stereo not drawn)
5,6.29,N=C(N)c1ccc(CC2NCCn3c2nc2cc(C4(C(=O)N5CCCC5)CC4)ccc23)cc1 (stereo not drawn)
6,5.84,CCOC(=O)C(C)(C)c1ccc2c(c1)nc1n2CCNC1Cc1ccc(C(=N)N)cc1 (stereo not drawn)
7,6.34,N=C(N)c1ccc(CC2NCCn3c2nc2cc(C4(C(=O)N5CCCCC5)CCC4)ccc23)cc1 (stereo not drawn)
8,6.36,N=C(N)c1ccc(CC2NCCn3c2nc2cc(C4(C(=O)N5CCCCC5)CC4)ccc23)cc1 (stereo not drawn)
9,6.35,N=C(N)c1ccc(CC2NCCn3c2nc2cc(C4(C(=O)N5CCCC5)CCC4)ccc23)cc1 (stereo not drawn)
10,7.08,N=C(N)c1ccc(CC2NCCn3c2nc2cc(C4(C(=O)N5CCCC5)CCCC4)ccc23)cc1 (stereo not drawn)

# Test system: Rattus norvegicus
# Experiment: Anti-thrombotic activity in Sprague-Dawley rat venous thrombosis model assessed as reduction in thrombus weight at 5 mg/kg, ig administered once daily for 3 days measured 2 hrs post last dose
# Type: functional, organism-based
row,Structure (SMILES),Activity
1,CCCCCCOC(=O)NC(=N)c1ccc(NCc2nc3cc(C(=O)N(CCC(=O)OCC)c4ccccn4)ccc3n2C)cc1,Active

# Test system: Rattus norvegicus
# Experiment: Anti-thrombotic activity in intragastrically dosed Sprague-Dawley rat venous thrombosis model assessed as reduction in thrombus weight administered once daily for 3 days measured 2 hrs post last dose
# Type: functional, organism-based
row,Structure (SMILES),Activity
1,Cc1nc(C)c(OC(=O)/N=C(\N)c2ccc(CC3NCCn4c3nc3cc(C5(C(=O)N6CCCC6)CCCC5)ccc34)cc2)nc1C (stereo not drawn),Dose-dependent effect
2,CC(C)(C)OC(=O)/N=C(\N)c1ccc(CC2NCCn3c2nc2cc(C4(C(=O)N5CCCC5)CCCC4)ccc23)cc1 (stereo not drawn),Dose-dependent effect
